US20100267561A1, “HERBICIDAL PYRIDAZINONE DERIVATIVES” (priority 2007, published 2010)

How the values were obtained:
Assay type in all cases: in vivo
[1] = tested on: umbrella sedge (Cyperus difformis); experiment: Test B flooded paddy test plant response
In short: (§1)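 Step one: raise plants to 2 leaves. Step two: flood pots 3 cm over the soil and apply compound into the water, keeping this depth. Step three: after 13–15 greenhouse days, score visually versus controls, 0–100, where 100 means complete control.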

[2] = tested on: ducksalad (Heteranthera limosa); experiment: Test B flooded paddy test plant response
In short: as §1

rice (Oryza sativa) = experiment: Test B flooded paddy test plant response
In short: as §1

[3] = tested on: barnyardgrass (Echinochloa crus-galli); experiment: Test B flooded paddy test plant response
In short: as §1

[4] = tested on: downy bromegrass (Bromus tectorum); experiment: Test B pre-/postemergence plant response; conditions: for Bromegrass, Downy plant response rating: 8 g ai/ha
In short: (§2)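 Visual scoring from 0 (no effect) to 100 (complete control) against untreated controls was done 13 to 15 days after greenhouse treatment. Chemicals were formulated in a surfactant-containing non-phytotoxic solvent and applied to soil preemergence or to 1- to 4-leaf (2-18 cm) plants postemergence.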

[5] = tested on: green foxtail (Setaria viridis); experiment: Test B pre-/postemergence plant response
In short: as §2

corn (Zea mays) = experiment: Test B pre-/postemergence plant response
In short: as §2

wild oat (Avena fatua) = experiment: Test B pre-/postemergence plant response
In short: as §2

[6] = tested on: large crabgrass (Digitaria sanguinalis); experiment: Test B pre-/postemergence plant response
In short: as §2

[7] = tested on: Russian thistle (Salsola iberica); experiment: Test B pre-/postemergence plant response; conditions: Preemergence
In short: as §2

[8] = tested on: pigweed (Amaranthus retroflexus); experiment: Test B pre-/postemergence plant response
In short: as §2

[9] = tested on: woolly cupgrass (Eriochloa villosa); experiment: Test B pre-/postemergence plant response
In short: as §2

[10] = tested on: eastern black (E.B.) nightshade (Solanum ptycanthum); experiment: Test B pre-/postemergence plant response; conditions: Preemergence
In short: as §2

[11] = tested on: giant foxtail (Setaria faberii); experiment: Test B pre-/postemergence plant response
In short: as §2

[12] = Flood (flooded paddy test), 62 g ai/ha, scale 0 to 100, 0 no effect, 100 complete control
[13] = Flood (flooded paddy test), 250 g ai/ha, scale 0 to 100, 0 no effect, 100 complete control
[14] = Preemergence, 31 g ai/ha, scale 0 to 100 (0 no effect, 100 complete control)
[15] = Preemergence, 62 g ai/ha, 0 to 100 scale, 0 no effect, 100 complete control
[16] = Preemergence, 8 g ai/ha, scale 0 to 100
[17] = Preemergence, 16 g ai/ha, scale 0 to 100
[18] = 31 g ai/ha, scale 0 to 100 (0 no effect, 100 complete control)
[19] = 62 g ai/ha, 0 to 100 scale, 0 no effect, 100 complete control
[20] = Flood (flooded paddy test), 125 g ai/ha, scale 0 to 100, 0 no effect, 100 complete control
[21] = Flood, 31 g ai/ha, scale 0 to 100
[22] = Postemergence, 16 g ai/ha, scale 0 to 100
[23] = Postemergence, 31 g ai/ha, scale 0 to 100, 0 no effect, 100 complete control
[24] = Postemergence, 62 g ai/ha, scale 0 to 100, 0 no effect, 100 complete control
[25] = Preemergence, 16 g ai/ha, scale 0 to 100 (0 no effect, 100 complete control)
[26] = Preemergence, 31 g ai/ha, 0 to 100 scale, 0 no effect, 100 complete control
[27] = Preemergence, 62 g ai/ha, scale 0 to 100
[28] = 8 g ai/ha, postemergence, 0-100 scale
[29] = 16 g ai/ha, scale 0 to 100 (0 no effect, 100 complete control)
[30] = 31 g ai/ha, 0 to 100 scale, 0 no effect, 100 complete control

C#CCOC(=O)Oc1cnn(C)c(=O)c1-n1nc(-c2ccc(Cl)cc2)cc1C [Compound 58]
Plant response rating, Sedge, Umbrella [1, 12]: 0 | Plant response rating, Sedge, Umbrella [1, 13]: 0 | Plant response rating, Ducksalad [2, 12]: 0 | Plant response rating, Ducksalad [2, 13]: 45 | Plant response rating, Rice (rice (Oryza sativa); [12]): 0 | Plant response rating, Rice (rice (Oryza sativa); [13]): 60 | Plant response rating, Barnyardgrass [3, 12]: 30 | Plant response rating, Barnyardgrass [3, 13]: 70 | Plant response rating, Bromegrass, Downy [4, 14]: 65 | Plant response rating, Bromegrass, Downy [4, 15]: 85 | Bromegrass, Downy plant response rating ([4]; Preemergence, scale 0 to 100): 0 | Plant response rating, Foxtail, Green [5, 14]: 100 | Plant response rating, Foxtail, Green [5, 15]: 100 | Foxtail, Green plant response rating [5, 16]: 100 | Foxtail, Green plant response rating [5, 17]: 100 | Plant response rating, Corn (corn (Zea mays); [14]): 55 | Plant response rating, Corn (corn (Zea mays); [15]): 80 | Corn plant response rating (corn (Zea mays); [16]): 0 | Corn plant response rating (corn (Zea mays); [17]): 0 | Plant response rating, Oat, Wild (wild oat (Avena fatua); [14]): 80 | Plant response rating, Oat, Wild (wild oat (Avena fatua); [15]): 95 | Oat, Wild plant response rating (wild oat (Avena fatua); [16]): 80 | Oat, Wild plant response rating (wild oat (Avena fatua); [17]): 80 | Plant response rating, Crabgrass, Large [6, 14]: 90 | Plant response rating, Crabgrass, Large [6, 15]: 100 | Crabgrass, Large plant response rating [6, 16]: 50 | Crabgrass, Large plant response rating [6, 17]: 75 | Plant response rating, Russian Thistle [7, 18]: 20 | Plant response rating, Russian Thistle [7, 19]: 60 | Russian Thistle plant response rating ([7]; 8 g ai/ha, scale 0 to 100): 0 | Russian Thistle plant response rating ([7]; 16 g ai/ha, scale 0 to 100): 0 | Plant response rating, Pigweed [8, 14]: 0 | Plant response rating, Pigweed [8, 15]: 0 | Pigweed plant response rating [8, 16]: 0 | Pigweed plant response rating [8, 17]: 0 | Plant response rating, Cupgrass, Woolly [9, 14]: 100 | Plant response rating, Cupgrass, Woolly [9, 15]: 100 | Cupgrass, Woolly plant response rating [9, 16]: 75 | Cupgrass, Woolly plant response rating [9, 17]: 80 | Plant response rating, Nightshade, E. B. [10, 18]: 0 | Plant response rating, Nightshade, E. B. [10, 19]: 0 | Nightshade, E. B. plant response rating ([10]; 8 g ai/ha, scale 0 to 100): 0 | Nightshade, E. B. plant response rating ([10]; 16 g ai/ha, scale 0 to 100): 0 | Plant response rating, Foxtail, Giant [11, 14]: 100 | Plant response rating, Foxtail, Giant [11, 15]: 100 | Foxtail, Giant plant response rating [11, 16]: 55 | Foxtail, Giant plant response rating [11, 17]: 95

CCc1cc(-c2ccc(Cl)cc2)nn1-c1c(OS(C)(=O)=O)cnn(C)c1=O [Compound 39]
Plant response rating, Sedge, Umbrella [1, 12]: 0 | Plant response rating, Sedge, Umbrella [1, 20]: 0 | Plant response rating, Sedge, Umbrella [1, 13]: 85 | Plant response rating, Sedge, Umbrella [1, 21]: 0 | Plant response rating, Ducksalad [2, 12]: 0 | Plant response rating, Ducksalad [2, 20]: 0 | Plant response rating, Ducksalad [2, 13]: 80 | Plant response rating, Ducksalad [2, 21]: 0 | Plant response rating, Rice (rice (Oryza sativa); [12]): 0 | Plant response rating, Rice (rice (Oryza sativa); [20]): 50 | Plant response rating, Rice (rice (Oryza sativa); [13]): 80 | Plant response rating, Rice (rice (Oryza sativa); [21]): 0 | Plant response rating, Barnyardgrass [3, 12]: 80 | Plant response rating, Barnyardgrass [3, 20]: 65 | Plant response rating, Barnyardgrass [3, 13]: 85 | Plant response rating, Barnyardgrass [3, 21]: 0 | Bromegrass, Downy plant response rating ([4]; postemergence, 0-100 scale): 5 | Plant response rating, Bromegrass, Downy [4, 22]: 10 | Plant response rating, Bromegrass, Downy [4, 23]: 45 | Plant response rating, Bromegrass, Downy [4, 24]: 80 | Plant response rating, Bromegrass, Downy [4, 25]: 70 | Plant response rating, Bromegrass, Downy [4, 26]: 85 | Plant response rating, Bromegrass, Downy [4, 27]: 85 | Bromegrass, Downy plant response rating ([4]; Preemergence, scale 0 to 100): 0 | Foxtail, Green plant response rating [5, 28]: 30 | Plant response rating, Foxtail, Green [5, 22]: 80 | Plant response rating, Foxtail, Green [5, 23]: 85 | Plant response rating, Foxtail, Green [5, 24]: 100 | Plant response rating, Foxtail, Green [5, 25]: 100 | Plant response rating, Foxtail, Green [5, 26]: 100 | Plant response rating, Foxtail, Green [5, 27]: 100 | Foxtail, Green plant response rating [5, 16]: 80 | Corn plant response rating (corn (Zea mays); [28]): 0 | Plant response rating, Corn (corn (Zea mays); [22]): 85 | Plant response rating, Corn (corn (Zea mays); [23]): 98 | Plant response rating, Corn (corn (Zea mays); [24]): 100 | Plant response rating, Corn (corn (Zea mays); [25]): 80 | Plant response rating, Corn (corn (Zea mays); [26]): 98 | Plant response rating, Corn (corn (Zea mays); [27]): 100 | Corn plant response rating (corn (Zea mays); [16]): 65 | Oat, Wild plant response rating (wild oat (Avena fatua); [28]): 95 | Plant response rating, Oat, Wild (wild oat (Avena fatua); [22]): 95 | Plant response rating, Oat, Wild (wild oat (Avena fatua); [23]): 100 | Plant response rating, Oat, Wild (wild oat (Avena fatua); [24]): 100 | Plant response rating, Oat, Wild (wild oat (Avena fatua); [25]): 90 | Plant response rating, Oat, Wild (wild oat (Avena fatua); [26]): 90 | Plant response rating, Oat, Wild (wild oat (Avena fatua); [27]): 95 | Oat, Wild plant response rating (wild oat (Avena fatua); [16]): 70 | Crabgrass, Large plant response rating [6, 28]: 70 | Plant response rating, Crabgrass, Large [6, 22]: 90 | Plant response rating, Crabgrass, Large [6, 23]: 98 | Plant response rating, Crabgrass, Large [6, 24]: 100 | Plant response rating, Crabgrass, Large [6, 25]: 100 | Plant response rating, Crabgrass, Large [6, 26]: 100 | Plant response rating, Crabgrass, Large [6, 27]: 100 | Crabgrass, Large plant response rating [6, 16]: 60 | Plant response rating, Russian Thistle [7, 29]: 0 | Plant response rating, Russian Thistle [7, 30]: 0 | Plant response rating, Russian Thistle ([7]; 62 g ai/ha, scale 0 to 100): 0 | Russian Thistle plant response rating ([7]; 8 g ai/ha, scale 0 to 100): 0 | Pigweed plant response rating [8, 28]: 0 | Plant response rating, Pigweed [8, 22]: 0 | Plant response rating, Pigweed [8, 23]: 0 | Plant response rating, Pigweed [8, 24]: 0 | Plant response rating, Pigweed [8, 25]: 0 | Plant response rating, Pigweed [8, 26]: 0 | Plant response rating, Pigweed [8, 27]: 0 | Pigweed plant response rating [8, 16]: 0 | Cupgrass, Woolly plant response rating [9, 28]: 80 | Plant response rating, Cupgrass, Woolly [9, 22]: 95 | Plant response rating, Cupgrass, Woolly [9, 23]: 100 | Plant response rating, Cupgrass, Woolly [9, 24]: 100 | Plant response rating, Cupgrass, Woolly [9, 25]: 65 | Plant response rating, Cupgrass, Woolly [9, 26]: 95 | Plant response rating, Cupgrass, Woolly [9, 27]: 98 | Cupgrass, Woolly plant response rating [9, 16]: 20 | Plant response rating, Nightshade, E. B. [10, 29]: 0 | Plant response rating, Nightshade, E. B. [10, 30]: 0 | Plant response rating, Nightshade, E. B. ([10]; 62 g ai/ha, scale 0 to 100): 0 | Nightshade, E. B. plant response rating ([10]; 8 g ai/ha, scale 0 to 100): 0 | Foxtail, Giant plant response rating [11, 28]: 80 | Plant response rating, Foxtail, Giant [11, 22]: 98 | Plant response rating, Foxtail, Giant [11, 23]: 100 | Plant response rating, Foxtail, Giant [11, 24]: 100 | Plant response rating, Foxtail, Giant [11, 25]: 100 | Plant response rating, Foxtail, Giant [11, 26]: 100 | Plant response rating, Foxtail, Giant [11, 27]: 100 | Foxtail, Giant plant response rating [11, 16]: 100
